Experimental findings from ChEMBL document CHEMBL2401633, “tert-Butyl 1,5-bis(4-(benzo[d]isothiazol-3-yl)piperazin-1-yl)-1,5-dioxopentan-2-ylcarbamate urea/thiourea derivatives as potent H+/K(+)-ATPase inhibitors” (Bioorg Med Chem Lett, 2013) are described below.

For one test, the species on record is Ovis aries. Kind of test: Ratio of omeprazole IC50 to compound IC50 for sheep gastric H(+)/K(+) ATPase. In kind it is tissue-based. The conditions noted are these: Stomach.
Take `COc1ccc(NC(=S)NC(CCC(=O)N2CCN(c3nsc4ccccc34)CC2)C(=O)N2CCN(c3nsc4ccccc34)CC2)cc1` (configuration not stated): the Ratio IC50 was found to be 15.

Tested on in a further test: not listed separately
The test can be described thus: Inhibition of sheep gastric H(+)/K(+)-ATPase-mediated inorganic phosphate liberation after 15 mins by Fiske Subbarow method in presence of ATP. In kind it is tissue-based, Ovis aries, Stomach.
Details: not given; call rule not given here
A word on the IC50: it is the concentration that inhibits the measured activity by half. Take `CC(C)(C)OC(=O)NC(CCC(=O)OCc1ccccc1)C(=O)O` (configuration not stated): the half-maximal inhibitory concentration (IC50) entry is recorded as “Not Active”.

As for `CC(C)(C)OC(=O)NC(CCC(=O)O)C(=O)N1CCN(c2nsc3ccccc23)CC1` (configuration not stated), the IC50 entry is on record as “Not Active”.

As to `CC(C)(C)OC(=O)NC(CCC(=O)N1CCN(c2nsc3ccccc23)CC1)C(=O)N1CCN(c2nsc3ccccc23)CC1` (configuration not stated), the half-inhibitory concentration (IC50) entry is reported as “Not Active”.

Consider `CC(C)(C)OC(=O)NC(CCC(=O)OCc1ccccc1)C(=O)N1CCN(c2nsc3ccccc23)CC1` (configuration not stated), for which the IC50 entry is recorded as “Not Active”.

Staying with this test, now noted: read-out: IC50.
For the compound `O=C(Nc1ccc(F)cc1)NC(CCC(=O)N1CCN(c2nsc3ccccc23)CC1)C(=O)N1CCN(c2nsc3ccccc23)CC1` (configuration not stated), the IC50 turned out to be 72 µM.

With `O=C(Nc1ccc(Br)cc1)NC(CCC(=O)N1CCN(c2nsc3ccccc23)CC1)C(=O)N1CCN(c2nsc3ccccc23)CC1` (configuration not stated), the IC50 was 46 µM.

For `O=C(CCC(NC(=S)Nc1ccccc1F)C(=O)N1CCN(c2nsc3ccccc23)CC1)N1CCN(c2nsc3ccccc23)CC1` (configuration not stated), the IC50 came to 74 µM.

Regarding `O=C(CCC(NC(=S)Nc1ccc(Cl)cc1)C(=O)N1CCN(c2nsc3ccccc23)CC1)N1CCN(c2nsc3ccccc23)CC1` (configuration not stated), the half-maximal inhibitory concentration (IC50) stood at 54 µM.

As to `O=C(CCC(NC(=S)Nc1cccc(Br)c1)C(=O)N1CCN(c2nsc3ccccc23)CC1)N1CCN(c2nsc3ccccc23)CC1` (configuration not stated), the IC50 came out at 48 µM.

On to `O=C(Nc1cccc(F)c1)NC(CCC(=O)N1CCN(c2nsc3ccccc23)CC1)C(=O)N1CCN(c2nsc3ccccc23)CC1` (configuration not stated), for which the IC50 amounted to 78 µM.

Turning to `O=C(Nc1cccc(Cl)c1)NC(CCC(=O)N1CCN(c2nsc3ccccc23)CC1)C(=O)N1CCN(c2nsc3ccccc23)CC1` (configuration not stated), the IC50 is 56 µM.

As to `COc1ccccc1NC(=O)NC(CCC(=O)N1CCN(c2nsc3ccccc23)CC1)C(=O)N1CCN(c2nsc3ccccc23)CC1` (configuration not stated), the IC50 came to 19 µM.

For `COc1ccc2[nH]c([S+]([O-])Cc3ncc(C)c(OC)c3C)nc2c1` (configuration not stated) [OMEPRAZOLE], the IC50 worked out at 84 µM.

Regarding `COc1cccc(NC(=O)NC(CCC(=O)N2CCN(c3nsc4ccccc34)CC2)C(=O)N2CCN(c3nsc4ccccc34)CC2)c1` (configuration not stated), the 50% inhibitory concentration (IC50) came to 11 µM.

With `COc1cccc(NC(=S)NC(CCC(=O)N2CCN(c3nsc4ccccc34)CC2)C(=O)N2CCN(c3nsc4ccccc34)CC2)c1` (configuration not stated), the IC50 amounted to 10 µM.

Take `O=C(CCC(NC(=S)Nc1ccccc1Br)C(=O)N1CCN(c2nsc3ccccc23)CC1)N1CCN(c2nsc3ccccc23)CC1` (configuration not stated): the IC50 amounted to 44 µM.

As for `O=C(Nc1ccc(Cl)cc1)NC(CCC(=O)N1CCN(c2nsc3ccccc23)CC1)C(=O)N1CCN(c2nsc3ccccc23)CC1` (configuration not stated), the 50% inhibitory concentration (IC50) was 52 µM.

Consider `O=C(CCC(NC(=S)Nc1ccc(F)cc1)C(=O)N1CCN(c2nsc3ccccc23)CC1)N1CCN(c2nsc3ccccc23)CC1` (configuration not stated), for which the IC50 was 70 µM.

As for `COc1ccc(NC(=O)NC(CCC(=O)N2CCN(c3nsc4ccccc34)CC2)C(=O)N2CCN(c3nsc4ccccc34)CC2)cc1` (configuration not stated), the IC50 stood at 6.2 µM.

Take `COc1ccc(NC(=S)NC(CCC(=O)N2CCN(c3nsc4ccccc34)CC2)C(=O)N2CCN(c3nsc4ccccc34)CC2)cc1` (configuration not stated): the IC50 came out at 5.4 µM.

Consider `O=C(CCC(NC(=S)Nc1cccc(Cl)c1)C(=O)N1CCN(c2nsc3ccccc23)CC1)N1CCN(c2nsc3ccccc23)CC1` (configuration not stated), for which the 50% inhibitory concentration (IC50) came out at 60 µM.

As to `O=C(Nc1ccccc1F)NC(CCC(=O)N1CCN(c2nsc3ccccc23)CC1)C(=O)N1CCN(c2nsc3ccccc23)CC1` (configuration not stated), the IC50 worked out at 80 µM.

`O=C(CCC(NC(=S)Nc1ccccc1)C(=O)N1CCN(c2nsc3ccccc23)CC1)N1CCN(c2nsc3ccccc23)CC1` (configuration not stated): the IC50 turned out to be 90 µM.

Regarding `O=C(Nc1ccccc1)NC(CCC(=O)N1CCN(c2nsc3ccccc23)CC1)C(=O)N1CCN(c2nsc3ccccc23)CC1` (configuration not stated), the IC50 came out at 94 µM.

`O=C(Nc1cccc(Br)c1)NC(CCC(=O)N1CCN(c2nsc3ccccc23)CC1)C(=O)N1CCN(c2nsc3ccccc23)CC1` (configuration not stated): the 50% inhibitory concentration (IC50) was 50 µM.

In the case of `COc1ccccc1NC(=S)NC(CCC(=O)N1CCN(c2nsc3ccccc23)CC1)C(=O)N1CCN(c2nsc3ccccc23)CC1` (configuration not stated), the IC50 was 17 µM.
